Activity calls are given as the source filed them. The rule behind the calls is not given here.
Assays:
Cholinesterase [1] = target: T1, Cholinesterase (Equus caballus, UniProt P81908); assay: Inhibition of equine serum BChE using butyrylthiocholine as substrate preincubated for 20 mins followed by substrate addition and measured upto 5 mins by Ellman's method
Acetylcholinesterase [2] = target: Acetylcholinesterase (Electrophorus electricus, UniProt O42275); assay: Inhibition of electric eel AChE using acetylthiocholine iodide as substrate preincubated for 20 mins followed by substrate addition and measured upto 5 mins by Ellman's method
Acetylcholinesterase (Electrophorus electricus, UniProt O42275), sequence (O42275 whole entry): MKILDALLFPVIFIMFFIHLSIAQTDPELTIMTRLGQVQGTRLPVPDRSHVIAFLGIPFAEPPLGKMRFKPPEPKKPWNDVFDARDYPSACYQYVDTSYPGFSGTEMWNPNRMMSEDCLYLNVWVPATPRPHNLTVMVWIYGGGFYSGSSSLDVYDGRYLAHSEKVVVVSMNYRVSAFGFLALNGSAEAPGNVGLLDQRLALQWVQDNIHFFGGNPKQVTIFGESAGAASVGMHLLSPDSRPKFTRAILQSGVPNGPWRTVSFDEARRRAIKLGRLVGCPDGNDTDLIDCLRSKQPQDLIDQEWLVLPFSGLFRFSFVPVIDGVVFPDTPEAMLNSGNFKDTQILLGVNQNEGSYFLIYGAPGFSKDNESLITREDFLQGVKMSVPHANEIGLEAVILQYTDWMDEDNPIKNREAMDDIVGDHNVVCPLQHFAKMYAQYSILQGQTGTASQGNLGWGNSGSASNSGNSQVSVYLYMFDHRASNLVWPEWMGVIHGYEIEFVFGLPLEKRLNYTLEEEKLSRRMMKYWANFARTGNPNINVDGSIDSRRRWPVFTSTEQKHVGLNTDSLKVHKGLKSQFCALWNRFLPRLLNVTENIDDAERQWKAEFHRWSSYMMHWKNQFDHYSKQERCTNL

Cholinesterase [3] = target: T1, Cholinesterase; assay: Mixed type inhibition of equine serum BChE assessed as Ki using butyrylthiocholine as substrate preincubated for 20 mins followed by substrate addition and measured upto 5 mins by Ellman's method based Lineweaver-Burk plot analysis
[4] = Aqueous solubility of the compound in phosphate buffered saline at pH 7.4 by reverse phase HPLC analysis; type: physicochemical
[5] = target: Amyloid-beta precursor protein (Homo sapiens) (UniProt P05067); assay: Inhibition of HFIP treated amyloid beta (1 to 40) (unknown origin) self-induced aggregation at 100 uM measured after 2 hrs by Thioflavin T fluorescence assay relative to control
Amyloid-beta precursor protein (Homo sapiens), sequence (P05067 whole entry): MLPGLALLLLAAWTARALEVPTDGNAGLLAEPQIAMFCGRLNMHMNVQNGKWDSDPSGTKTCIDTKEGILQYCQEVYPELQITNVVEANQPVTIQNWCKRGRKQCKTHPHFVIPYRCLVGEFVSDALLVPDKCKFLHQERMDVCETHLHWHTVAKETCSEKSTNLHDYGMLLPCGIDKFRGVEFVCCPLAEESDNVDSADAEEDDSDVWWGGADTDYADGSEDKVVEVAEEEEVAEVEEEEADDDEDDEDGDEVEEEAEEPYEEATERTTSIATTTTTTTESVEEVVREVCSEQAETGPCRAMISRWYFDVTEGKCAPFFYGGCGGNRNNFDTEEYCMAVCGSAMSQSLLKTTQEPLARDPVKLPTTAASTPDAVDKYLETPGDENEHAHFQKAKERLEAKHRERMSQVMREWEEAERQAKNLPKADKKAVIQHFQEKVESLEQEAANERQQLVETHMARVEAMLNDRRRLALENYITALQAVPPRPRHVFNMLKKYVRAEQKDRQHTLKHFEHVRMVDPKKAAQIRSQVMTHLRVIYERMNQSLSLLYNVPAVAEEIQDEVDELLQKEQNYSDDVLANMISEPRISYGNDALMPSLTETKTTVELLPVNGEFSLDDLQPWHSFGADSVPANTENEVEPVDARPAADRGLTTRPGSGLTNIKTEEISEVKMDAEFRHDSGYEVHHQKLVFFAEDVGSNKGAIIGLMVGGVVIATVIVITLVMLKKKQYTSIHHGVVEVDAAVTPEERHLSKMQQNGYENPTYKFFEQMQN

SH-SY5Y [6] = assay: Neuroprotection activity against amyloid beta (1 to 42)-induced cytotoxicity in human SH-SY5Y cells assessed as recovery of viability at 5 uM measured after 48 hrs by MTT assay relative to control; type: functional
Acetylcholinesterase [7] = target: Acetylcholinesterase (Homo sapiens, UniProt P22303); assay: Inhibition of human AChE using acetylthiocholine iodide as substrate preincubated for 20 mins followed by substrate addition and measured upto 5 mins by Ellman's method
Acetylcholinesterase (Homo sapiens, UniProt P22303), sequence (P22303 whole entry): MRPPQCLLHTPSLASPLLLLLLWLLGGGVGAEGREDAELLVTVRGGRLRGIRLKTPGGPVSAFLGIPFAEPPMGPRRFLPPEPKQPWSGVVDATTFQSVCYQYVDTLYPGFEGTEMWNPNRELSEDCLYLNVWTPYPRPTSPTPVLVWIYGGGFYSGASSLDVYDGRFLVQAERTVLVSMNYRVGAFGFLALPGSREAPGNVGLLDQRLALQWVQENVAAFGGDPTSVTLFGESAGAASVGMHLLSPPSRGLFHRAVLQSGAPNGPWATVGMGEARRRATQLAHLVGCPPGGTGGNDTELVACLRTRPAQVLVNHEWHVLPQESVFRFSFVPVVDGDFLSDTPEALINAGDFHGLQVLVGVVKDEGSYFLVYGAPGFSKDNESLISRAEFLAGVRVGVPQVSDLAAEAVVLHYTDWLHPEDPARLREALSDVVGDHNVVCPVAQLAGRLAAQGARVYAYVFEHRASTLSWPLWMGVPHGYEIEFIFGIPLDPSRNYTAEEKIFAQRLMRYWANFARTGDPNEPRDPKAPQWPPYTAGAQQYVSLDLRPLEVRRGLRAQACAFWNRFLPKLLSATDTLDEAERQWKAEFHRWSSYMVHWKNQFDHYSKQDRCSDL

SH-SY5Y [8] = assay: Neuroprotective activity against H2O2-induced oxidative stress in human SH-SY5Y cells assessed as reduction in ROS generation preincubated for 1 hr followed by DCFH-DA addition for 30 mins and subsequent co-treatment with compound and H2O2 for 30 min by fluorescence assay; type: functional, cell-based
SH-SY5Y [9] = assay: Neuroprotection activity against amyloid beta (1 to 42)-induced cytotoxicity in human SH-SY5Y cells assessed as recovery of viability at 5 uM by MTT assay; type: functional, cell-based; details: TDE = time-dependent effect
Cholinesterase [10] = target: Cholinesterase (Homo sapiens, UniProt P06276); assay: Inhibition of human BChE using butyrylthiocholine as substrate preincubated for 20 mins followed by substrate addition and measured upto 5 mins by Ellman's method
Cholinesterase (Homo sapiens, UniProt P06276), sequence (P06276 whole entry): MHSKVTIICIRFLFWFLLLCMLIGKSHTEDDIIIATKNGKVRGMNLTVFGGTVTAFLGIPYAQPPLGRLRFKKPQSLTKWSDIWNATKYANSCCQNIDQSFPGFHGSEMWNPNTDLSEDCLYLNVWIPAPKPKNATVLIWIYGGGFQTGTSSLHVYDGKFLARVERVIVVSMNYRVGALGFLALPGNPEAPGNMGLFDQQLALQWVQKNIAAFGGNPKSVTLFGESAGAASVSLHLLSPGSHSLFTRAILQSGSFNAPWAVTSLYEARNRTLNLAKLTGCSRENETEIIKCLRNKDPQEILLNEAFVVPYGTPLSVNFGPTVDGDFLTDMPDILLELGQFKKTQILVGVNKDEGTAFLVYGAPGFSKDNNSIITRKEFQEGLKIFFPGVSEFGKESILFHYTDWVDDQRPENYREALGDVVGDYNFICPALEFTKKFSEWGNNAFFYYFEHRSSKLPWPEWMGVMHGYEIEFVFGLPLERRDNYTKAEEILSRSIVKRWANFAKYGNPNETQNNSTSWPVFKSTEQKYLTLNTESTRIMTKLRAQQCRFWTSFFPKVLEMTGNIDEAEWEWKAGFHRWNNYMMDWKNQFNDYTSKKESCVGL

SH-SY5Y [11] = assay: Neuroprotection activity against amyloid beta (1 to 42)-induced toxicity in human SH-SY5Y cells assessed as recovery of viability at 5 uM measured after 24 hrs by MTT assay relative to control; type: functional
SH-SY5Y [12] = assay: Cytotoxicity in human SH-SY5Y cells assessed as decrease in cell viability at 5 uM measured after 48 hrs by MTT assay relative to control; type: cell-based
[13] = Selectivity index, ratio of IC50 for electric eel AChE to IC50 for equine serum BuChE
[14] = Selectivity index, ratio of IC50 for electric eel AChE to IC50 for human BuChE
[15] = target: Amyloid-beta precursor protein (Homo sapiens) (UniProt P05067); assay: Inhibition of HFIP treated amyloid beta (1 to 40) (unknown origin) self-induced aggregation at 100 uM measured after 2 hrs by Thioflavin T fluorescence assay
SH-SY5Y [16] = assay: Neuroprotective activity against H2O2-induced oxidative stress in human SH-SY5Y cells assessed as reduction in ROS generation at 100 uM preincubated for 1 hr followed by DCFH-DA addition for 30 mins and subsequent co-treatment with compound and H2O2 for 30 min by fluorescence assay; type: functional, cell-based

T1 sequence (P81908 whole entry): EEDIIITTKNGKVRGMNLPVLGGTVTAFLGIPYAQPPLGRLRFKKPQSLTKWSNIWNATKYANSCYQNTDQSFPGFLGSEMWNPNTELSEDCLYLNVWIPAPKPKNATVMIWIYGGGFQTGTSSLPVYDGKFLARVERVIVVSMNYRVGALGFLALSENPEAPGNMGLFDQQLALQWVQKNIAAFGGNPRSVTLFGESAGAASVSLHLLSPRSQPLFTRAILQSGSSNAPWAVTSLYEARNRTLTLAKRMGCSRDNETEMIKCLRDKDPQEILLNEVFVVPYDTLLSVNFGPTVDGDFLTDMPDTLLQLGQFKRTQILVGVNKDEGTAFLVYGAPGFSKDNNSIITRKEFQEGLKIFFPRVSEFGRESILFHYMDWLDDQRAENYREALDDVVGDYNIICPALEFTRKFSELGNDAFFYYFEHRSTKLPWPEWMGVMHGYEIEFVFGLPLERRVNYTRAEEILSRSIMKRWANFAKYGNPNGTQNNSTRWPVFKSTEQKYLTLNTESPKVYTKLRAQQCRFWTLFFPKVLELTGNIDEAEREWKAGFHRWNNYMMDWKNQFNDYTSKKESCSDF

SMILES: CN1CCCc2[nH]c3ccccc3c2C1
- IC50 (Cholinesterase [1]): 25 µM
- IC50 (Acetylcholinesterase [2]): 7.1 µM

SMILES: Cl.c1ccc(CCCCN2CCCc3[nH]c4ccccc4c3C2)cc1
- Ki (Cholinesterase [3]): 0.098 µM
- solubility [4]: > 1000 µM
- inhibition [5]: 38 to 54%
- Activity (SH-SY5Y [6]): 30%
- IC50 (Acetylcholinesterase [7]): 20 µM
- Activity (SH-SY5Y [8]): Dose-dependent effect
- IC50 (SH-SY5Y [8]): 10.1 µM
- Activity (SH-SY5Y [9]): Tde
- IC50 (Cholinesterase [10]): 0.199 µM
- Activity (SH-SY5Y [11]): 35%
- Activity (SH-SY5Y [12]): 30%
- IC50 (Cholinesterase [1]): 0.17 µM
- IC50 (Acetylcholinesterase [2]): 20 µM
- Ratio IC50 [13]: > 100
- Ratio IC50 [14]: > 100

SMILES: CCN(CC)Cc1ccc(CN2CCCc3[nH]c4ccc(F)cc4c3C2)cc1
- IC50 (Cholinesterase [1]): 1.4 µM
- IC50 (Acetylcholinesterase [2]): 4.8 µM

SMILES: O=C(c1ccccc1)N1CCCc2[nH]c3ccc(F)cc3c2C1
- IC50 (Cholinesterase [1]): 6 µM
- IC50 (Acetylcholinesterase [2]): 10.6 µM

SMILES: Cc1ccc2[nH]c3c(c2c1)CN(C)CCC3
- IC50 (Cholinesterase [1]): 7.1 µM
- IC50 (Acetylcholinesterase [2]): 25 µM

SMILES: Fc1ccc2[nH]c3c(c2c1)CN(Cc1ccc(CN2CCCC2)cc1)CCC3
- IC50 (Cholinesterase [1]): 4.3 µM
- IC50 (Acetylcholinesterase [2]): 7.9 µM

SMILES: Cl.c1ccc(CCCN2CCCc3[nH]c4ccccc4c3C2)cc1
- solubility [4]: > 1000 µM
- inhibition [5]: 38 to 54%
- IC50 (Cholinesterase [1]): 0.28 µM
- IC50 (Acetylcholinesterase [2]): 20 µM
- Ratio IC50 [13]: 10 to 100

SMILES: Fc1ccc2[nH]c3c(c2c1)CCCN(Cc1ccccc1)C3
- IC50 (Cholinesterase [1]): 3.4 µM
- IC50 (Acetylcholinesterase [2]): 10.7 µM

SMILES: Cn1c2c(c3ccccc31)CN(CCc1ccccc1)CCC2
- inhibition [5]: 38 to 54%
- IC50 (Cholinesterase [1]): 0.86 µM
- IC50 (Acetylcholinesterase [2]): 12 µM
- Ratio IC50 [13]: 10 to 100

SMILES: Cc1ccc2[nH]c3c(c2c1)CNCCC3
- IC50 (Cholinesterase [1]): 8 µM
- IC50 (Acetylcholinesterase [2]): 45 µM

SMILES: Cl.c1ccc(CCN2CCCc3[nH]c4ccccc4c3C2)cc1
- solubility [4]: > 1000 µM
- inhibition [5]: 38 to 54%
- IC50 (Cholinesterase [1]): 0.7 µM
- IC50 (Acetylcholinesterase [2]): 9 µM
- Ratio IC50 [13]: 10 to 100

SMILES: Fc1ccc(CN2CCCc3[nH]c4ccccc4c3C2)cc1
- IC50 (Cholinesterase [1]): 1.2 µM
- IC50 (Acetylcholinesterase [2]): 12 µM
- Ratio IC50 [13]: 10

SMILES: O=c1c(O)c(-c2ccc(O)c(O)c2)oc2cc(O)cc(O)c12
- inhibition [15]: Active
- Activity (SH-SY5Y [16]): Active

SMILES: c1ccc(CN2CCCc3[nH]c4ccccc4c3C2)cc1
- inhibition [5]: 38 to 54%
- IC50 (Cholinesterase [1]): 2 µM
- IC50 (Acetylcholinesterase [2]): 8.7 µM

SMILES: Fc1ccc2[nH]c3c(c2c1)CN(Cc1ccccc1)CCC3
- IC50 (Cholinesterase [1]): 2.13 µM
- IC50 (Acetylcholinesterase [2]): 4.96 µM

SMILES: Cc1ccc2[nH]c3c(c2c1)CN(Cc1ccccc1)CCC3
- IC50 (Cholinesterase [1]): 1.2 µM
- IC50 (Acetylcholinesterase [2]): 6.95 µM

SMILES: Fc1ccc(CN2CCCc3[nH]c4ccc(F)cc4c3C2)cc1
- IC50 (Cholinesterase [1]): 2.9 µM
- IC50 (Acetylcholinesterase [2]): 4.1 µM

SMILES: c1ccc2c3c([nH]c2c1)CCCNC3
- IC50 (Cholinesterase [1]): 20 µM
- IC50 (Acetylcholinesterase [2]): 70 µM

SMILES: Cc1ccc(CN2CCCc3[nH]c4ccccc4c3C2)cc1
- IC50 (Cholinesterase [1]): 0.95 µM
- IC50 (Acetylcholinesterase [2]): 10 µM
- Ratio IC50 [13]: 10

SMILES: Fc1ccc2[nH]c3c(c2c1)CNCCC3
- IC50 (Cholinesterase [1]): 4.3 µM
- IC50 (Acetylcholinesterase [2]): 16 µM

Reference: ChEMBL document CHEMBL4393727, “Investigating 1,2,3,4,5,6-hexahydroazepino[4,3-b]indole as scaffold of butyrylcholinesterase-selective inhibitors with additional neuroprotective activities for Alzheimer's disease” (Eur J Med Chem, 2019)
